{"source": "ChEMBL document CHEMBL3862012", "about": "“Methylene versus carbonyl bridge in the structure of new tubulin polymerization inhibitors with tricyclic A-rings” (Bioorg Med Chem, 2016)", "key": {"[1]": {"experiment": "Cytotoxicity against human MOLT4 cells assessed as growth inhibition at 10 uM after 48 hrs by SRB assay relative to control", "type": "functional", "settings": "MOLT-4, 48 h, read-out: GI"}, "[2]": {"experiment": "Cytotoxicity against human MDA-MB-231 cells assessed as growth inhibition at 10 uM after 48 hrs by SRB assay relative to control", "type": "functional", "settings": "MDA-MB-231, 48 h, read-out: GI"}, "[3]": {"experiment": "Cytotoxicity against human MDA-MB-468 cells assessed as growth inhibition at 10 uM after 48 hrs by SRB assay relative to control", "type": "functional", "settings": "MDA-MB-468, 48 h, read-out: GI"}, "[4]": {"experiment": "Cytotoxicity against human SF268 cells assessed as growth inhibition at 10 uM after 48 hrs by SRB assay relative to control", "type": "functional", "settings": "SF-268, 48 h, read-out: GI"}, "Ovis aries": {"organism": "Ovis aries", "experiment": "Inhibition of sheep brain tubulin polymerization at 100 uM by DAPI staining-based fluorimetric method relative to control"}, "[5]": {"experiment": "Cytotoxicity against human CCRF-CEM cells assessed as growth inhibition at 10 uM after 48 hrs by SRB assay relative to control", "type": "functional", "settings": "read-out: GI"}, "[6]": {"experiment": "Cytotoxicity against human HOP62 cells assessed as growth inhibition at 10 uM after 48 hrs by SRB assay relative to control", "type": "functional", "settings": "HOP-62, 48 h, read-out: GI"}, "[7]": {"experiment": "Cytotoxicity against human SNB19 cells assessed as growth inhibition at 10 uM after 48 hrs by SRB assay relative to control", "type": "functional", "settings": "SNB-19, 48 h, read-out: GI"}, "[8]": {"experiment": "Cytotoxicity against human IGROV1 cells assessed as growth inhibition at 10 uM after 48 hrs by SRB assay relative to control", "type": "functional", "settings": "IGROV-1, 48 h, read-out: GI"}, "[9]": {"experiment": "Cytotoxicity against human A549 cells assessed as growth inhibition at 10 uM after 48 hrs by SRB assay relative to control", "type": "functional", "settings": "A549, 48 h, read-out: GI"}, "[10]": {"experiment": "Cytotoxicity against human EKVX cells assessed as growth inhibition at 10 uM after 48 hrs by SRB assay relative to control", "type": "functional", "settings": "read-out: GI"}, "[11]": {"experiment": "Cytotoxicity against human MCF7 cells assessed as growth inhibition at 10 uM after 48 hrs by SRB assay relative to control", "type": "functional", "settings": "MCF7, 48 h, read-out: GI"}, "[12]": {"experiment": "Cytotoxicity against human BT549 cells assessed as growth inhibition at 10 uM after 48 hrs by SRB assay relative to control", "type": "functional", "settings": "BT-549, 48 h, read-out: GI"}, "[13]": {"experiment": "Cytotoxicity against human OVCAR3 cells assessed as growth inhibition at 10 uM after 48 hrs by SRB assay relative to control", "type": "functional", "settings": "OVCAR-3, 48 h, read-out: GI"}, "[14]": {"experiment": "Cytotoxicity against human Caki1 cells assessed as growth inhibition at 10 uM after 48 hrs by SRB assay relative to control", "type": "functional", "settings": "CAKI-1, 48 h, read-out: GI"}, "[15]": {"experiment": "Cytotoxicity against human LOXIMVI cells assessed as growth inhibition at 10 uM after 48 hrs by SRB assay relative to control", "type": "functional", "settings": "LOX IMVI, read-out: GI"}, "[16]": {"experiment": "Cytotoxicity against human M14 cells assessed as growth inhibition at 10 uM after 48 hrs by SRB assay relative to control", "type": "functional", "settings": "M14, 48 h, read-out: GI"}, "[17]": {"experiment": "Cytotoxicity against human OVCAR5 cells assessed as growth inhibition at 10 uM after 48 hrs by SRB assay relative to control", "type": "functional", "settings": "OVCAR-5, 48 h, read-out: GI"}, "[18]": {"experiment": "Cytotoxicity against human SNB75 cells assessed as growth inhibition at 10 uM after 48 hrs by SRB assay relative to control", "type": "functional", "settings": "SNB-75, 48 h, read-out: GI"}, "[19]": {"experiment": "Cytotoxicity against human DU145 cells assessed as growth inhibition at 10 uM after 48 hrs by SRB assay relative to control", "type": "functional", "settings": "DU-145, 48 h, read-out: GI"}, "[20]": {"experiment": "Cytotoxicity against human PC3 cells assessed as growth inhibition at 10 uM after 48 hrs by SRB assay relative to control", "type": "functional", "settings": "PC-3, 48 h, read-out: GI"}, "[21]": {"experiment": "Cytotoxicity against human SF539 cells assessed as growth inhibition at 10 uM after 48 hrs by SRB assay relative to control", "type": "functional", "settings": "SF-539, 48 h, read-out: GI"}, "[22]": {"experiment": "Cytotoxicity against human UO31 cells assessed as growth inhibition at 10 uM after 48 hrs by SRB assay relative to control", "type": "functional", "settings": "UO-31, 48 h, read-out: GI"}, "[23]": {"experiment": "Cytotoxicity against human HT-29 cells assessed as growth inhibition at 10 uM after 48 hrs by SRB assay relative to control", "type": "functional", "settings": "HT-29, 48 h, read-out: GI"}, "[24]": {"experiment": "Cytotoxicity against human ACHN cells assessed as growth inhibition at 10 uM after 48 hrs by SRB assay relative to control", "type": "functional", "settings": "read-out: GI"}, "[25]": {"experiment": "Cytotoxicity against human SF295 cells assessed as growth inhibition at 10 uM after 48 hrs by SRB assay relative to control", "type": "functional", "settings": "SF-295, 48 h, read-out: GI"}, "[26]": {"experiment": "Cytotoxicity against human U251 cells assessed as growth inhibition at 10 uM after 48 hrs by SRB assay relative to control", "type": "functional", "settings": "U-251, 48 h, read-out: GI"}, "[27]": {"experiment": "Cytotoxicity against human OVCAR4 cells assessed as growth inhibition at 10 uM after 48 hrs by SRB assay relative to control", "type": "functional", "settings": "OVCAR-4, 48 h, read-out: GI"}, "[28]": {"experiment": "Cytotoxicity against human HOP92 cells assessed as growth inhibition at 10 uM after 48 hrs by SRB assay relative to control", "type": "functional", "settings": "HOP-92, 48 h, read-out: GI"}, "[29]": {"experiment": "Cytotoxicity against human MALME-3M cells assessed as growth inhibition at 10 uM after 48 hrs by SRB assay relative to control", "type": "functional", "settings": "read-out: GI"}, "[30]": {"experiment": "Cytotoxicity against human NCI-H460 cells assessed as growth inhibition at 10 uM after 48 hrs by SRB assay relative to control", "type": "functional", "settings": "NCI-H460, 48 h, read-out: GI"}, "[31]": {"experiment": "Cytotoxicity against human SK-MEL-2 cells assessed as growth inhibition at 10 uM after 48 hrs by SRB assay relative to control", "type": "functional", "settings": "SK-MEL-2, 48 h, read-out: GI"}, "[32]": {"experiment": "Cytotoxicity against human NCI-H522 cells assessed as growth inhibition at 10 uM after 48 hrs by SRB assay relative to control", "type": "functional", "settings": "NCI-H522, 48 h, read-out: GI"}, "[33]": {"experiment": "Cytotoxicity against human MDA-MB-435 cells assessed as growth inhibition at 10 uM after 48 hrs by SRB assay relative to control", "type": "functional", "settings": "MDA-MB-435, 48 h, read-out: GI"}, "[34]": {"experiment": "Cytotoxicity against human 786-0 cells assessed as growth inhibition at 10 uM after 48 hrs by SRB assay relative to control", "type": "functional", "settings": "786-0, 48 h, read-out: GI"}, "[35]": {"experiment": "Cytotoxicity against human SKOV3 cells assessed as growth inhibition at 10 uM after 48 hrs by SRB assay relative to control", "type": "functional", "settings": "SK-OV-3, 48 h, read-out: GI"}, "[36]": {"experiment": "Cytotoxicity against human SW620 cells assessed as growth inhibition at 10 uM after 48 hrs by SRB assay relative to control", "type": "functional", "settings": "SW-620, 48 h, read-out: GI"}}, "data": [{"molecule": "COc1ccc(CN2c3ccccc3Sc3ccccc32)c(C(F)(F)F)c1", "values": [{"measurement": "inhibition of growth at 10 µM", "setting": "[1]", "value": 76, "unit": "%"}, {"measurement": "inhibition of growth at 10 µM", "setting": "[2]", "value": 59, "unit": "%"}, {"measurement": "inhibition of growth at 10 µM", "setting": "[3]", "value": 81, "unit": "%"}, {"measurement": "inhibition of growth at 10 µM", "setting": "[4]", "value": 44, "unit": "%"}, {"measurement": "inhibition", "setting": "Ovis aries", "value": 15, "unit": "%"}, {"measurement": "inhibition of growth at 10 µM", "setting": "[5]", "value": 90, "unit": "%"}, {"measurement": "inhibition of growth at 10 µM", "setting": "[6]", "value": 59, "unit": "%"}, {"measurement": "inhibition of growth at 10 µM", "setting": "[7]", "value": 67, "unit": "%"}, {"measurement": "inhibition of growth at 10 µM", "setting": "[8]", "value": 57, "unit": "%"}, {"measurement": "inhibition of growth at 10 µM", "setting": "[9]", "value": 67, "unit": "%"}, {"measurement": "inhibition of growth at 10 µM", "setting": "[10]", "value": 50, "unit": "%"}, {"measurement": "inhibition of growth at 10 µM", "setting": "[11]", "value": 76, "unit": "%"}, {"measurement": "inhibition of growth at 10 µM", "setting": "[12]", "value": 47, "unit": "%"}, {"measurement": "inhibition of growth at 10 µM", "setting": "[13]", "value": 94, "unit": "%"}, {"measurement": "inhibition of growth at 10 µM", "setting": "[14]", "value": 67, "unit": "%"}, {"measurement": "inhibition of growth at 10 µM", "setting": "[15]", "value": 45, "unit": "%"}, {"measurement": "inhibition of growth at 10 µM", "setting": "[16]", "value": 92, "unit": "%"}, {"measurement": "inhibition of growth at 10 µM", "setting": "[17]", "value": 35, "unit": "%"}, {"measurement": "inhibition of growth at 10 µM", "setting": "[18]", "value": 92, "unit": "%"}, {"measurement": "inhibition of growth at 10 µM", "setting": "[19]", "value": 79, "unit": "%"}, {"measurement": "inhibition of growth at 10 µM", "setting": "[20]", "value": 73, "unit": "%"}, {"measurement": "inhibition of growth at 10 µM", "setting": "[21]", "value": 100, "unit": "%"}, {"measurement": "inhibition of growth at 10 µM", "setting": "[22]", "value": 54, "unit": "%"}, {"measurement": "inhibition of growth at 10 µM", "setting": "[23]", "value": 98, "unit": "%"}, {"measurement": "inhibition of growth at 10 µM", "setting": "[24]", "value": 51, "unit": "%"}, {"measurement": "inhibition of growth at 10 µM", "setting": "[25]", "value": 98, "unit": "%"}, {"measurement": "inhibition of growth at 10 µM", "setting": "[26]", "value": 79, "unit": "%"}, {"measurement": "inhibition of growth at 10 µM", "setting": "[27]", "value": 56, "unit": "%"}, {"measurement": "inhibition of growth at 10 µM", "setting": "[28]", "value": 61, "unit": "%"}, {"measurement": "inhibition of growth at 10 µM", "setting": "[29]", "value": 7, "unit": "%"}, {"measurement": "inhibition of growth at 10 µM", "setting": "[30]", "value": 90, "unit": "%"}, {"measurement": "inhibition of growth at 10 µM", "setting": "[31]", "value": 96, "unit": "%"}, {"measurement": "inhibition of growth at 10 µM", "setting": "[32]", "value": 100, "unit": "%"}, {"measurement": "inhibition of growth at 10 µM", "setting": "[33]", "value": 100, "unit": "%"}, {"measurement": "inhibition of growth at 10 µM", "setting": "[34]", "value": 58, "unit": "%"}, {"measurement": "inhibition of growth at 10 µM", "setting": "[35]", "value": 82, "unit": "%"}, {"measurement": "inhibition of growth at 10 µM", "setting": "[36]", "value": 74, "unit": "%"}]}]}
